From PubChem BioAssay AID1963441 (Molecular Pharmacology Branch, DTP, NCI, 2024)
pIC50: −log10 of the molar value. “And” between values parts separate entries of the source, which are not always exact repeats. Identical values can stand only once.

Tested on: NCI-H1876 complex spheroid growth, % test/control
Test: Anticancer human tumor NCI-H1876 cell line growth inhibition [Asc];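 also: compound exposure lasted 7 days starting three days after seeding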;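 as to viability, T/C: 100% = DMSO vehicle control wells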
Conditions: for viability, T/C: stronger effect = lower value
Procedure, shortened: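 Tumor cells were grown as multicellular spheroids with stromal HUVEC and mesenchymal stem cells and treated singly or in combination. Concentrations fell in half-log steps from the clinical Cmax, or from 10 microM where none was known.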

Question: What does the source list for `CCN1CCN(Cc2ccc(Nc3ncc(F)c(-c4cc(F)c5nc(C)n(C(C)C)c5c4)n3)nc2)CC1` + Cc1c(S(C)(=O)=O)c(-c2cc(F)cc(N3CCN(c4ccc(NS(=O)(=O)c5ccc(NC(CCN6CCC(C(=O)OCCCP(=O)(O)O)CC6)CSc6ccccc6)c(S(=O)(=O)C(F)(F)F)c5)cc4)CC3)c2)c(-c2ccc(Cl)cc2)n1C(C)C?
Answer: pIC50 (curve of first compound, second compound 0.0316 µM): < 6.00; pIC50 (curve of first compound, second compound 0.1 µM): < 6.00; pIC50 (curve of first compound, second compound 0.316 µM): < 6.00; pIC50 (curve of first compound, second compound 1 µM): < 6.00; pIC50 (curve of first compound, second compound 3.16 µM): < 6.00; pIC50 (curve of first compound, second compound 10 µM): < 6.00; viability, T/C (second compound 0.0316 µM, first compound 0.00316 µM): 97.1%; viability, T/C (second compound 0.0316 µM, first compound 0.01 µM): 94%; viability, T/C (second compound 0.0316 µM, first compound 0.0316 µM): 97.9%; viability, T/C (second compound 0.0316 µM, first compound 0.1 µM): 98.7%; viability, T/C (second compound 0.0316 µM, first compound 0.316 µM): 117%; viability, T/C (second compound 0.0316 µM, first compound 1 µM): 130%; viability, T/C (second compound 0.1 µM, first compound 0.00316 µM): 98.7%; viability, T/C (second compound 0.1 µM, first compound 0.01 µM): 101%; viability, T/C (second compound 0.1 µM, first compound 0.0316 µM): 100%; viability, T/C (second compound 0.1 µM, first compound 0.1 µM): 112%; viability, T/C (second compound 0.1 µM, first compound 0.316 µM): 121%; viability, T/C (second compound 0.1 µM, first compound 1 µM): 127%; viability, T/C (second compound 0.316 µM, first compound 0.00316 µM): 106%; viability, T/C (second compound 0.316 µM, first compound 0.01 µM): 96.2%; viability, T/C (second compound 0.316 µM, first compound 0.0316 µM): 120%; viability, T/C (second compound 0.316 µM, first compound 0.1 µM): 106%; viability, T/C (second compound 0.316 µM, first compound 0.316 µM): 115%; viability, T/C (second compound 0.316 µM, first compound 1 µM): 125%; viability, T/C (second compound 1 µM, first compound 0.00316 µM): 101%; viability, T/C (second compound 1 µM, first compound 0.01 µM): 100%; viability, T/C (second compound 1 µM, first compound 0.0316 µM): 98.1%; viability, T/C (second compound 1 µM, first compound 0.1 µM): 109%; viability, T/C (second compound 1 µM, first compound 0.316 µM): 121%; viability, T/C (second compound 1 µM, first compound 1 µM): 116%; viability, T/C (second compound 3.16 µM, first compound 0.00316 µM): 111%; viability, T/C (second compound 3.16 µM, first compound 0.01 µM): 104%; viability, T/C (second compound 3.16 µM, first compound 0.0316 µM): 91.8%; viability, T/C (second compound 3.16 µM, first compound 0.1 µM): 103%; viability, T/C (second compound 3.16 µM, first compound 0.316 µM): 114%; viability, T/C (second compound 3.16 µM, first compound 1 µM): 110%; viability, T/C (second compound 10 µM, first compound 0.00316 µM): 105%; viability, T/C (second compound 10 µM, first compound 0.01 µM): 104%; viability, T/C (second compound 10 µM, first compound 0.0316 µM): 94.7%; viability, T/C (second compound 10 µM, first compound 0.1 µM): 111%; viability, T/C (second compound 10 µM, first compound 0.316 µM): 122%; viability, T/C (second compound 10 µM, first compound 1 µM): 102%

Question: With `CNC(C)C(=O)NC1CN(S(=O)(=O)c2cccc(S(=O)(=O)N3CCC4CCC(C(=O)NC(c5ccccc5)c5ccccc5)N4C(=O)C(NC(=O)C(C)NC)C3)c2)CCC2CCC(C(=O)NC(c3ccccc3)c3ccccc3)N2C1=O` (centres undefined) as the compound, how does the viability, T/C (compound 0.01 µM) read?
Answer: The viability, T/C was 103% [middle of 9 runs].

Question: What about the viability, T/C (compound 0.0316 µM) of the same compound?
Answer: Its viability, T/C is 105% [middle of 9 runs].

Question: And the viability, T/C (compound 0.1 µM)?
Answer: Its viability, T/C is 103% [middle of 9 runs].

Question: What about the viability, T/C (compound 0.316 µM) of the same compound?
Answer: The viability, T/C was 101% [middle of 9 runs].

Question: And the viability, T/C (compound 1 µM)?
Answer: Its viability, T/C is 93.7% [middle of 9 runs].

Question: What about the pIC50 (compound alone, run of 11/15/2022) of the same compound?
Answer: Its pIC50 is < 6.00.

Question: What about the pIC50 (curve of compound) of the same compound?
Answer: The pIC50 was < 6.00.

Question: What does the source list for `NC(=O)C(=Cn1cnc(-c2cc(C(F)(F)F)cc(C(F)(F)F)c2)n1)c1cncnc1`?
Answer: viability, T/C (compound 0.000949 µM): 104% and 99.4% (2×); viability, T/C (compound 0.003 µM): 90.3% and 91.5% and 85.9%; viability, T/C (compound 0.00949 µM): 93.9% and 92.5% and 90.8%; viability, T/C (compound 0.03 µM): 92.4% and 98.6% and 97.9%; viability, T/C (compound 0.0949 µM): 97.5% and 80.5% and 104%; viability, T/C (compound 0.3 µM): 74.8% and 77.2% and 94.8%; pIC50 (curve of compound): < 6.52

Question: How did the viability, T/C (compound 0.000316 µM) turn out when `Cn1ncnc1[C@H]1c2n[nH]c(=O)c3cc(F)cc(c23)N[C@@H]1c1ccc(F)cc1` was run?
Answer: The viability, T/C was 93.5% and 106% and 102%.

Question: What about the viability, T/C (compound 0.001 µM) of the same compound?
Answer: Its viability, T/C is 90.9% and 86.1% and 110%.

Question: And the viability, T/C (compound 0.00316 µM)?
Answer: The viability, T/C was 95.7% and 88.1% and 105%.

Question: What about the viability, T/C (compound 0.01 µM) of the same compound?
Answer: The viability, T/C was 102% and 96.1% and 94.6%.

Question: And the viability, T/C (compound 0.0316 µM)?
Answer: The viability, T/C was 98.4% and 99.3% and 105%.

Question: What about the viability, T/C (compound 0.1 µM) of the same compound?
Answer: Its viability, T/C is 86% and 101% and 97.6%.

Question: What about the pIC50 (curve of compound) of the same compound?
Answer: The pIC50 was < 7.00.

Question: Which viability, T/C (compound 0.0316 µM) does the source give for `C=C(F)C(=O)N1CCN(c2nc(OCC3CCCN3C)nc3c2CCN(c2cccc4cccc(Cl)c24)C3)CC1CC#N` (centres undefined) here?
Answer: The viability, T/C was 94.3% and 102% and 97.8%.

Question: What about the viability, T/C (compound 0.1 µM) of the same compound?
Answer: Its viability, T/C is 97.6% and 92.2% and 89.2%.

Question: And the viability, T/C (compound 0.316 µM)?
Answer: The viability, T/C was 101% and 95.3% and 93%.

Question: And the viability, T/C (compound 1 µM)?
Answer: Its viability, T/C is 108% and 93% and 105%.

Question: What about the viability, T/C (compound 3.16 µM) of the same compound?
Answer: The viability, T/C was 98% and 90.9% and 102%.

Question: What about the pIC50 (curve of compound) of the same compound?
Answer: The pIC50 was 5.25 and 5.22 and 5.16.
